According to paper PMC12073497 (Molecules, 2025):
“And” between values parts separate entries of the source, which are not always exact repeats. Identical values can stand only once.

test system: not listed separately; assay: DPPH radical scavenging (antioxidant) assay; type: biochemical; details: means of triplicate ± SEM
Excerpt: Oxidative stress is an imbalance between in vivo generated reactive oxygen/ nitrogen species (ROS/NOS) and the cellular antioxidant defenses. Oxidative stress is connected with more than one hundred illnesses that include cardiovascular, cancer, neurogenerative diseases, hypertension, atherosclerosis, and diabetes mellitus. Antioxidants decrease the cellular level of ROS and thus play a significant role in preventing related diseases. Antioxidants react with ROS through three possible mechanisms: (i) hydrogen transfer, (ii) electron transfer, and (iii) metal chelation. DPPH radical scavenging assay relies on the electron/hydrogen atom transfer (mixed) mechanism. The prepared crown ethers with variable cavity sizes 10a–d, parent precursor (FABE) 8, and the novel intermediate 7 were examined for antioxidant behavior using the DPPH radical scavenging protocol, following the literature, and the results are shown in Table 1.
Gulcin et al. proposed a method for the free radical scavenging activity (antioxidant activity) using 1,1-diphenyl-2-picryl-hydrazil (DPPH). An ethanolic solution of DPPH was prepared at a concentration of 0.3 mM. In the next step, different concentrations of each sample were prepared in ethanol, ranging from (62.5–500 μg) by mixing 5 microliters of each sample with 95 µL of DPPH solution. The resulting mixture was transferred to 96-well plates and incubated for 30 min at 37 °C. A microtiter plate reader (Spectramax plus 384 Molecular Device, San Jose, CA, USA) was used to measure the absorbance at 515 nm, and the radical scavenging activity (%) was compared with the methanol-treated control. The standard for the protocol was Butyl hydroxyanisole (BHA). DPPH scavenging effect (%) = Ac − As/Ac × 100, where Ac is the absorbance of the control (DMSO-treated), and As is the absorbance of the sample.

Compound | IC50
CCCCOC(=O)/C(CCC=C(C)C)=C1/C2CC3OCCOCCOCCOCCOC4CC[C@@]5(C)C(CC[C@@](C)(C35)[C@@]2(C)C[C@@H]1OC(C)=O)[C@@H]4C (stereo partly drawn) [Compound 10c, Butyl(2Z)-2-[(3aS,22S,23aS,23bS,24S)-22-(acetyloxy)-3a,23a,23b,24-tetramethyldocosahydro-3,6-methanocyclopenta[3,4]naphtho[1,8-no][1,4,7,10,13]pentaoxacyclononadecin-21(1H)-ylidene]-6-methylhept-5-enoate] | 32.1 µM and 22.5 µM
Butyl(2Z)-2-[(3aS,27S,28aS,28bS,29S)-27-(acetyloxy)-3a,28a,28b,29-tetramethyltetracosahydro-3,6-methanocyclopenta[3,4] naphtho[1,8-st][1,3,6,9,12,15,18]heptaoxacyclotetracosin-26(1H)-ylidene]-6- methylhept-5-enoate [Compound 10d] | 45.4 ± 0.9 µM
COc1ccc(O)cc1C(C)(C)C [Butylated hydroxyanisole, reference compound] | 44.2 ± 0.3 µM
CCCCOC(O)(OC(=NC1CCCCC1)NC1CCCCC1)/C(CCC=C(C)C)=C1\[C@@H](OC(C)=O)C[C@@]2(C)[C@H]1C[C@@H](O)[C@H]1[C@@]3(C)CC[C@@H](O)[C@@H](C)[C@@H]3CC[C@@]12C (some centres unmarked) [Intermediate 7] | 32.9 ± 0.4 µM
CCCCOC(=O)C(CCC=C(C)C)=C1C(OC(C)=O)CC2(C)C1CC1OCCOCCOC3CCC4(C)C(CCC2(C)C14)C3C [Compound 10a, Butyl(2Z)-2-[(3aS,16S,17aS,17bS,18S)-16-(acetyloxy)-3a,17a,17b,18-tetramethyloctahydro-3,6 methanocyclopenta[3,4]naptho[1,8hi][1,4,7]trioxyacylotridecin-15(1H)-ylidene]-6-methylhept-5-enoate] | 65.5 ± 0.3 µM
CCCCOC(=O)/C(CCC=C(C)C)=C1/C2CC3OCCOCCOCCOC4CC[C@@]5(C)C(CC[C@@](C)(C35)[C@@]2(C)C[C@@H]1OC(C)=O)[C@@H]4C (stereo partly drawn) [Compound 10b, Butyl(2Z)-2-[(3aS,19S,20aS,20bS,21S)-19-(acetyloxy)-3a,20a,20b,21-tetramethylicosahydro-3,6-methanocyclopenta[3,4]naphtho[1,8-kl][1,4,7,10]tetraoxacyclohexadecin-18(1H)-ylidene]-6-methylhept-5-enoate] | 22.5 µM and 32.1 µM
CCCCOC(=O)/C(CCC=C(C)C)=C1\[C@@H](OC(C)=O)C[C@@]2(C)[C@@H]1CC(O)[C@@H]1[C@@]3(C)CCC(O)[C@@H](C)C3CC[C@@]12C (some centres unmarked) [Compound 8, Butyl(2Z)-2-[(4a,8a,14b,16b)-16-(acetyloxy)-3,11-dihydroxy-4,8,10,14-tetramethylgonan-17-ylidene]-6-methylhept-5-enoate] | 54.6 ± 0.2 µM

biological target: α-glucosidase (Sigma, type III, from yeast) (Saccharomyces cerevisiae, UniProt P53341); assay: α-Glucosidase inhibition assay; type: biochemical; details: means of triplicate ± SEM
Sequence (P53341 whole entry): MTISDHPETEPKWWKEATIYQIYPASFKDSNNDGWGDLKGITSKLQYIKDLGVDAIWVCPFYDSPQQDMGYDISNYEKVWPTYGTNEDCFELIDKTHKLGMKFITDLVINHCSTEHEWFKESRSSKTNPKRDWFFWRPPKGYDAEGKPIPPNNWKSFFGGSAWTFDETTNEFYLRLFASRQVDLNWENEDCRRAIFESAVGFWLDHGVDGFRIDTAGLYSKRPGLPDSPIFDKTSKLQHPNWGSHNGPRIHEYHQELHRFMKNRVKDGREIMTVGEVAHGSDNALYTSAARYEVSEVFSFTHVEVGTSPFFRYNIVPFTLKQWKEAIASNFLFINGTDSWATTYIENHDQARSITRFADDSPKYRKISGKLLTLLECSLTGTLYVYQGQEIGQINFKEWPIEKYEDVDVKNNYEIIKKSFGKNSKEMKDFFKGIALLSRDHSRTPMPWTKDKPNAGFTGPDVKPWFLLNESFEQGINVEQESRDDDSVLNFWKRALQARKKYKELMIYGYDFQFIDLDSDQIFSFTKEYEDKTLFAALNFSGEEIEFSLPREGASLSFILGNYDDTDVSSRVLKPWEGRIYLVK
Procedure: In this background, according to the standard protocol [51], we examined the prepared crown ether molecules 10a–d along with parent precursor FABE 8 and the novel intermediate 7 for their in vitro α-glucosidase inhibition potential.
The protocol for the α-Glucosidase inhibition assay is built on the formation of product as a result of substrate breakdown, detected by absorbance measurement [69]. In the first step, an enzyme α-glucosidase (Sigma, type III, from yeast) was prepared in buffer solution A (0.1 mol/L potassium phosphate, 3.2 mmol/L-MgCl2, pH = 6.8) (0.1 units/mL) mixed with p-nitrophenyl-α-D-glucopyranoside dissolved to obtain the desired concentration of substrate of 6 mmol/L. Another Buffer solution B (102 µL) was prepared by mixing (0.5 M KH2PO4, 16 mmol/L-MgCl2, pH = 6.8) along with 120 µL of sample solution (0.6 mg/mL in dimethyl sulfoxide), 282 µL of water and 200 µL of substrate. In the next step, 200 µL of enzyme was added in the same reaction mixture, incubated for 5 min at 37 °C. […] The activity of enzyme inhibition was measured at 410 nm by its absorbance. […] The inhibition% is equal to Ac − As/Ac × 100, where Ac is the absorbance (control), and As is the absorbance (Sample).

Compound | IC50
Butyl(2Z)-2-[(3aS,27S,28aS,28bS,29S)-27-(acetyloxy)-3a,28a,28b,29-tetramethyltetracosahydro-3,6-methanocyclopenta[3,4] naphtho[1,8-st][1,3,6,9,12,15,18]heptaoxacyclotetracosin-26(1H)-ylidene]-6- methylhept-5-enoate [Compound 10d] | 54.3 ± 0.1 µM
